The results in this text go back to patent US7445931B2, “Compositions and methods for enrichment of neural stem cells using ceramide analogs” (Bresagen, Inc., priority 2002, dated 2008).

Series [1] relates to differentiating ES-J1 cells. As to the kind of experiment: Apoptosis (TUNEL staining, cell death) in differentiating mouse ES cells incubated with ceramide analogs. In kind it is cell-based. Conditions: 15 hours with 75 μM S16 or S18, or 35 μM C2-ceramide. As for the experimental part:
In vitro neural differentiation of mouse ES cells (ES-J1, ES-D3) followed a serum deprivation protocol as described previously (Hancock, et al., 2000 Biochem. Biophys. Res. Commun., 271: 418-421). The differentiation stages are outlined in FIG. 2. Briefly, ES cells were grown on gamma-irradiated feeder fibroblasts for four days in Knockout DMEM/15% Knockout serum replacement, supplemented with ESGRO (LIF; Chemicon; Cat No. ESG1106) at a concentration of 10^3 units/ml medium. ES cells were then grown for another four days on gelatin-coated bacterial culture dishes without a fibroblast feeder layer, and were then grown for three days in Knockout DMEM/15% heat-inactivated ES qualified Fetal Bovine Serum, supplemented with 10^3 units LIF per ml of medium. Upon trypsinization, ES cells were transferred to bacterial culture dishes without gelatin, and embryoid body (EB) formation was induced for four days in Knockout DMEM/10% heat-inactivated ES qualified FBS without LIF (EB4 stage). On the fifth day, floating and loosely attached EBs were rinsed off and transferred to tissue culture dishes. The EBs were allowed to attach to the tissue culture dish surface by incubation for another 24 hours in Knockout DMEM with 10% heat-inactivated ES qualified fetal bovine serum. Neural differentiation due to serum deprivation was induced by cultivation of the EBs for three days in DME/12 (50/50), supplemented with 1×N2 (Invitrogen/Life Technologies; Cat No. 17502, dilution of 1:100) but without serum (EB8 stage). Serum-deprived EBs were then trypsinized, plated on poly-L-ornithine/laminin-coated tissue culture dishes and grown for four days in DMEM/F12 (50/50), supplemented with N2 and 10 ng/ml FGF-2, but without serum. This incubation period is referred to as neuroprogenitor (NP) stage due to commitment of neuroepithelial precursor cells to neuroprogenitor cells, and/or due to the selective expansion of neural progenitor cells in the FGF-2 containing serum-free medium. These cells have committed during the EB stages and were expanded during the NP stage. NPs grown for 48 hours upon replating of trypsinized EBs were referred to as the NP2 stage. On the fifth day of NP formation, the medium was changed to Neurobasal (Invitrogen/Life Technologies; Cat No. 21103-049), with 5% heat-inactivated FBS, and the cells were incubated for another seven days. During this time, NPs fully differentiate to glial cells and neurons. Cells cultured for 24 hours or 96 hours upon changing the medium were referred to as the D1 or D4 stage, respectively.
ES cells were cultured and differentiated to the EB4, EB8, NP2, or D4 stage following the protocol as described above. The ceramide analog S18 was dissolved in ethanol at a concentration of 100 mM and then added to the cells at a final concentration of 75 μM in medium. The cells at the EB8 stage were incubated for 48 hours in the presence of the ceramide analog and were then transplanted into mouse brains.
Differentiating ES cells were grown on cover slips and fixed with 4% paraformaldehyde in phosphate-buffered saline (PBS). Fixed cells were permeabilized with 0.5% Triton X-100 in PBS for 5 minutes at room temperature and unspecific binding sites were saturated by incubation with 3% ovalbumin in PBS for 1 hour at 37° C. The cover slips were then incubated with 5 μg/ml primary antibody (anti-ceramide clone 15B4 mouse IgM, Alexis; anti-PAR-4 rabbit IgG, Santa Cruz; anti-PCNA rabbit IgG, Santa Cruz; anti-nestin clone 401 rat IgG, BD Pharmingen) in 0.1% ovalbumin/PBS, followed by incubation with the appropriate fluorescence-labeled secondary antibody (5 μg/ml Alexa 546 conjugated anti-mouse IgG, Molecular Probes; Alexa 488 conjugated anti-rabbit IgG, Molecular Probes, Cy3 conjugated anti-mouse IgM, Jackson) for 2 hours at 37° C. The nuclei were stained by treatment with 2 μg/ml Hoechst 33258 in PBS for 30 minutes at room temperature. […]

Series [2] concerns differentiating ES cells. As to the kind of experiment: Apoptosis (TUNEL) in ceramide-depleted differentiating ES cells and its restoration by ceramide or analogs. Conditions: for reduction of the degree of apoptosis: EB8 and NP2 stage, 25 μM FB1 or 50 nM myriocin for 48 hours. In kind it is cell-based, mouse. As for the experimental part:
Fumonisin B1 (FB1) or myriocin-treated (ceramide-depleted) differentiating ES cells were incubated with natural ceramide. To prepare the natural ceramide, 50 mg of EBs or NPs were resuspended in 500 μl of water, and after phase separation with 500 μl of CHCl3/CH3OH (1:1 by vol.) the neutral lipids were recovered from the lower phase. The neutral lipids were evaporated to dryness with a gentle stream of nitrogen and redissolved in 1 ml of CHCl3. The solution was applied to a silicic acid gel column (0.5 g) and fatty acids and cholesterol washed out with another 15 ml of CHCl3 (Dasgupta and Hogan, 2001 J. Lipid Res., 42:301-308). The ceramide fraction was then eluted with 20 ml of CHCl3/acetone (9:1, by vol.), evaporated to dryness, and the residue (approximately 6 nmoles of ceramide) dissolved in 20 μl of ethanol containing 2% dodecane (vol./vol.). Aliquots of 5 μl were mixed with 1 ml of medium, yielding a final concentration of 1.5 μM natural ceramide for induction of apoptosis (Ji et al., 1995 FEBS Lett., 358:211-214).
Differentiating ES cells at the EB8 cells were dissociated and grown for 24 hours on laminin/ornithin-coated cover slips (NP1 stage) in DMEM/F12 (50/50), supplemented with 1×N2 and 20 ng/ml FGF-2. Cells were incubated for 3 hours with 10 μM bromodeoxyuridine (BrdU) and the TUNEL assay or immunostainings performed after 5 hours of incubation. For immunostaining, cells were fixed with 4% paraformaldehyde in phosphate-buffered saline (PBS). Fixed cells were permeabilized with 0.2% Triton X-100 in PBS for 5 minutes at room temperature and immunostaining performed as described previously (Bieberich et al., 2001 J. Biol. Chem., 276:44396-44404). The nuclei were stained by treatment with 2 μg/ml Hoechst 33258 in PBS for 30 minutes at room temperature. Apoptotic nuclei were stained using the fluorescein FragEL TUNEL assay according to instructions of the manufacturer (Oncogene).
The degree of apoptosis in differentiating ES cultures was determined since it was previously proposed that ceramide elevation induces apoptosis in NPs (Bieberch et al., 2001 J. Biol. Chem., 276:44396-44404). […] Apoptosis was elevated at the EB8 stage ([…]), and was highest at the NP2 stage (35+/−5%). […] Apoptosis was restored by the addition of 30 μM N-acetyl sphingosine (C2-ceramide), 80 μM of the novel ceramide analog N-oleoyl serinol (S18), or 1 μM of natural ceramide that was extracted from differentiating ES cells.

Series [3] deals with Mouse neuroblastoma (F-11) cells. The series is described as follows: Induction of apoptosis in mouse neuroblastoma cells (Hoechst 33258 staining). Conditions: 24 hours. Type of series: cell-based. As for the experimental part: Mouse neuroblastoma (F-11) cells were incubated for 24 hours in 0.1, 0.2, 0.5, or 1.0 μM of laurylgallate (Aldrich). Apoptosis was determined by punctate staining of condensed nuclei with Hoechst 33258 (Sigma, […] medium for 30 minutes at room temperature).

The subject of series [4] is differentiating ES cells (NPs), PAR-4. As to the kind of experiment: S18-induced apoptosis (TUNEL) in NPs after PAR-4 antisense knockdown or PAR-4-RFP overexpression. In kind it is cell-based, mouse. The procedure: For construction of PAR-4-REP cDNA, RT-PCR was performed with the oligonucleotide primer pair sense 5′atggcgaccggcggctatcg3′ (SEQ ID NO:14) and antisense 5′ctaccttgtcagctgcccaacaac3′(SEQ ID NO:15), using the first strand cDNA generated from embryoid bodies (EB8 stage) as template for the amplification reaction. The primers were endowed with the restriction enzyme cleaving sites Eco47III (sense) and SaII (antisense) for ligation of the PAR-4 specific amplification product into the multiple cloning site of HcRFP, a vector that encodes a far-red shifted variant of red fluorescent protein (Clontech). Differentiating ES cells at the NP1 stage were transfected with the PAR-4-RFP construct using the lipofectamine 2000 procedure according to the manufacturer's instructions (Invitrogen). The transfected cells were incubated in DMEM F12 (50/50), supplemented with 1×N2 and 20 ng/ml FGF-2, and the TUNEL assay or immunostainings were performed after 48 hours of incubation and NP formation. For depletion of ceramide, differentiating ES cell were incubated with 25 μM fumonisin B1 or 50 nM myriocin 48 hours prior to transfection with the PAR-4-RFP vector, and the inhibitor maintained in the medium throughout the post-transfection period. For induction of apoptosis, the novel ceramide analog S18 (40-100 μM), N-acetyl sphingosine (C2-ceramide, 10-30 μM), or natural ceramide isolated from EBs (0.5-1.5 μM) was added 48 hours after transfection with the PAR-4-RFP cDNA, and the degree of apoptosis quantified after 15-20 hours using TUNEL assays with paraformaldehyde-fixed cells as described above.
(§1) Endogenous expression of PAR-4 was suppressed by transfection of differentiating ES cells at the NP1 stage with 2 nmoles (per well in 24 wells plate) of the morpholino-based antisense oligonucleotide 5′cgatagccgccggtcgccatgttcc3′(SEQ ID NO:16) (see Guo et al., 1998, Nature Med., 4:957-962; Guo et al., 2001 Brain Res, 903:13-25) following the instructions of the manufacturer (GeneTools) in 0.5 ml of serum-free DMEM/F-12, 1XN2 supplemented with 20 ng/ml FGF-2. For induction of apoptosis, the novel ceramide analog S18 (40-100), N-acetyl sphingosine (C2 ceramide, […], or natural ceramide isolated from EBs (0.5-1.5 μM) was added 48 hours after transfection with the anti-PAR-4 morpholino, and the degree of apoptosis quantified after 15-20 hours using TUNEL assays with paraformaldehyde-fixed cells as described above.

In series [5] the test system is PAR-4. As to the kind of experiment: PAR-4 immunoblot after transfection with PAR-4 antisense morpholino. In kind it is cell-based, mouse. Conditions: NPs transfected with 2 nmoles morpholino. As for the experimental part: as §1
The amount of protein was determined following a modified Folin phenol reagent (Lowry) assay essentially as described in Wang and Smith (1975 Anal. Biochem., 63:414-417). Protein extracted with detergent was precipitated according to the Wessel and Fluegge method (Wessel and Flugge, 1984 Anal. Biochem, 138:141-143). SDS-PAGE was performed using the Laemmli method followed by immunoblotting (Laemmri, 1970 Nature, 227:680-685).
For orientation: Immunoblotting shows a protein as a band on a membrane.

`CCCCCCCCCCCCC/C=C/[C@@H](O)[C@H](CO)NC(C)=O` [C2-ceramide, N-acetyl sphingosine, reference compound]: the “number of TUNEL stained cells” value in series [1] (EB8 stage) worked out at 45±10%; in series [1] (NP2 stage) it was 70±10%. Moreover, the “dependence of apoptosis on PAR-4 expression” value in series [2] (FB1-treated cells at the NP2 stage) was “only seen in cells that expressed PAR-4”. Further, the “restoration of apoptosis in FB1-treated cells” value in series [2] (NP2 stage, 30 μM C2-ceramide, 80 μM S18, or 1 μM natural ceramide) is on record as “restored”.

Consider `CCCC[C@@H](C)[C@@H](OC(=O)C[C@@H](CC(=O)O)C(=O)O)[C@H](C[C@@H](C)C[C@H](O)CCCC[C@@H](O)C[C@H](O)[C@H](C)N)OC(=O)C[C@@H](CC(=O)O)C(=O)O` [FB1, Fumonisin B1, reference compound], for which, in series [2], the “reduction of the degree of apoptosis” value is recorded as “about 50%”.

On to `CCCCCCCCCCCCCCCC(=O)NC(CO)CO` [S16, N-(2-hydroxy-1-(hydroxymethyl)ethyl)-palmitoylamide], for which the entries for the “number of TUNEL stained cells” value in series [1] (EB8 stage) and in series [1] (NP2 stage) were 45±10% and 70±10%, respectively.

The compound `CCCCCCCCCCCCOC(=O)c1cc(O)c(O)c(O)c1` [laurylgallate, n-dodecyl ester of 3,4,5-trihydroxybenzoic acid] showed a cells undergoing apoptosis in series [3] (0.5 μM laurylgallate) of 50%. In series [3] (1.0 μM laurylgallate), this compound returned a cells undergone apoptosis of 100%.

As for `CCCCCCC(=O)CCCCCC/C=C/C[C@@H](O)[C@H](O)[C@@](N)(CO)C(=O)O` [myriocin, reference compound], in series [2], the “reduction of the degree of apoptosis” value is recorded as “about 50%”.

As to LEHD-CHO [reference compound], in series [4] (differentiating ES cells, caspase 9 inhibitor pre-incubation), the “effect of pre-incubation on apoptosis inducible with S18 or natural ceramide” value is “suppressed apoptosis”.

In the case of “PAR-4 specific antisense morpholino: morpholino-based antisense oligonucleotide 5′cgatagccgccggtcgccatgttcc3′ (SEQ ID NO:16) (antisense CGATAGCCGCCGGTCGCCATGTTCC; all phosphorodiamidate morpholino (PMO)) [reference compound]”, the S18-induced apoptosis entry in series [4] (NPs transfected with PAR-4 specific antisense morpholino, then S18) is recorded as “less than 30%”. Also, the “expression level of PAR-4 relative to untransfected cells” value in series [5] was “about 25%”.
